Source: ChEMBL document CHEMBL4316608, “Artemisinin-indole and artemisinin-imidazole hybrids: Synthesis, cytotoxic evaluation and reversal effects on multidrug resistance in MCF-7/ADR cells” (Bioorg Med Chem Lett, 2019)
Structures can show the parent of a compound that is named as a salt.

Columns and labels:
CCRF-CEM = assay: Cytotoxicity against human CCRF-CEM cells by XTT assay; format: functional, cell-based
ADR5000 cell line = assay: Cytotoxicity against human CEM/ADR5000 cells by XTT assay; format: functional, cell-based
HepG2 = assay: Antiproliferative activity against human HepG2 cells measured after 48 hrs by MTT assay; format: functional, cell-based; conditions: HepG2, 48 h
MCF7 [1] = assay: Antiproliferative activity against human MCF7 cells measured after 48 hrs by MTT assay; format: functional, cell-based; conditions: MCF7, 48 h
MDA-MB-231 = assay: Antiproliferative activity against human MDA-MB-231 cells measured after 48 hrs by MTT assay; format: functional, cell-based; conditions: MDA-MB-231, 48 h
NCI/ADR-RES = assay: Potentiation of adriamycin-induced antiproliferative activity against human MCF7/ADR cells assessed as fold reduction in adriamycin IC50 at 5 uM measured after 48 hrs by MTT assay; format: functional
A549 = assay: Antiproliferative activity against human A549 cells measured after 48 hrs by MTT assay; format: functional, cell-based; conditions: A549, 48 h
[2] = Toxicity in human MCF7 cells assessed as inhibition of cell proliferation at 5 uM measured after 48 hrs by MTT assay; format: cell-based
L02 = assay: Cytotoxicity against human L02 cells measured after 48 hrs by MTT assay; format: cell-based; conditions: L02, 48 h
MCF7 [3] = assay: Cell cycle arrest in human MCF7 cells assessed as accumulation at S phase at 5 uM measured after 48 hrs by propidium iodide staining based flow cytometry (reference value: 24.31%); format: functional
MCF7 [4] = assay: Potency index, ratio of artemisinin IC50 to test compound IC50 for human MCF7 cells; format: functional
MCF7 [5] = assay: Cell cycle arrest in human MCF7 cells assessed as accumulation at G2 phase at 2.5 uM measured after 48 hrs by propidium iodide staining based flow cytometry (reference value: 23.25%); format: functional
MCF7 [6] = assay: Cell cycle arrest in human MCF7 cells assessed as accumulation at S phase at 10 uM measured after 48 hrs by propidium iodide staining based flow cytometry (reference value: 24.31%); format: functional
MCF7 [7] = assay: Cell cycle arrest in human MCF7 cells assessed as accumulation at G2 phase at 5 uM measured after 48 hrs by propidium iodide staining based flow cytometry (reference value: 23.25%); format: functional
MCF7 [8] = assay: Cell cycle arrest in human MCF7 cells assessed as accumulation at S phase at 2.5 uM measured after 48 hrs by propidium iodide staining based flow cytometry (reference value: 24.31%); format: functional
MCF7 [9] = assay: Cell cycle arrest in human MCF7 cells assessed as accumulation at G2 phase at 10 uM measured after 48 hrs by propidium iodide staining based flow cytometry (reference value: 23.25%); format: functional
MCF7 [10] = assay: Cell cycle arrest in human MCF7 cells assessed as accumulation at G1 phase at 2.5 uM measured after 48 hrs by propidium iodide staining based flow cytometry (reference value: 52.44%); format: functional
MCF7 [11] = assay: Cell cycle arrest in human MCF7 cells assessed as accumulation at G1 phase at 5 uM measured after 48 hrs by propidium iodide staining based flow cytometry (reference value: 52.44%); format: functional
MCF7 [12] = assay: Cell cycle arrest in human MCF7 cells assessed as accumulation at G1 phase at 10 uM measured after 48 hrs by propidium iodide staining based flow cytometry (reference value: 52.44%); format: functional

Compound | IC50 (HepG2) [µM] | IC50 (MCF7 [1]) [µM] | IC50 (MDA-MB-231) [µM] | fold change (FC) (NCI/ADR-RES) | IC50 (A549) [µM] | inhibition at 48 h, 5 µM [2] [%] | IC50 (L02) [µM] | further results
C[C@@H]1CC[C@@H]2[C@]34OO[C@](C)(CC[C@@H]13)O[C@H]4OC[C@]2(C)O | – | – | – | – | – | – | – | IC50 (CCRF-CEM): 156 µM; IC50 (ADR5000 cell line): 90 µM
C[C@H]1[C@H](OC(=O)CCC(=O)OCCCCn2cnc(C#N)c2C#N)O[C@@H]2O[C@@]3(C)CC[C@H]4[C@H](C)CC[C@@H]1[C@@]24OO3 | 32.3 | 15.2 | 50.8 | 4.1 | 17.9 | 11.2 | 42.9 | –
C[C@H]1[C@H](OC(=O)CCC(=O)OCCCCn2cc(C#N)nc2Cl)O[C@@H]2O[C@@]3(C)CC[C@H]4[C@H](C)CC[C@@H]1[C@@]24OO3 | 40.2 | 13.6 | > 100 | 11.17 | 23.3 | 16.6 | 52.3 | –
C[C@H]1[C@H](OC(=O)CCC(=O)OCCCn2ccnc2[N+](=O)[O-])O[C@@H]2O[C@@]3(C)CC[C@H]4[C@H](C)CC[C@@H]1[C@@]24OO3 | 39.3 | 12.9 | > 100 | 16.69 | 20.9 | 22.3 | 46.4 | –
C[C@@H]1CC[C@H]2[C@@H](C)C(OC(=O)c3c[nH]c4ccccc34)O[C@@H]3O[C@@]4(C)CC[C@@H]1[C@]32OO4 (stereo not given in full) | 15.2 | 6.78 | 58.9 | 95.85 | 12.9 | 18.9 | 42.6 | –
C[C@H]1[C@H](OC(=O)CCC(=O)OCCCCn2cnc([N+](=O)[O-])c2)O[C@@H]2O[C@@]3(C)CC[C@H]4[C@H](C)CC[C@@H]1[C@@]24OO3 | 30.2 | 15.4 | 57 | 26.06 | 25.8 | 20.2 | 77.5 | –
C[C@H]1[C@H](OC(=O)CCC(=O)OCCn2ccnc2[N+](=O)[O-])O[C@@H]2O[C@@]3(C)CC[C@H]4[C@H](C)CC[C@@H]1[C@@]24OO3 | 23.7 | 16.4 | 39.4 | 27.09 | 14 | 13.5 | 50.2 | –
C[C@H]1[C@H](OC(=O)CCC(=O)OCCn2cnc(C#N)c2C#N)O[C@@H]2O[C@@]3(C)CC[C@H]4[C@H](C)CC[C@@H]1[C@@]24OO3 | 25.6 | 10.8 | > 100 | 5.41 | 12.4 | 13.7 | 49.1 | –
C[C@H]1[C@H](OC(=O)CCC(=O)OCCn2cnc([N+](=O)[O-])c2)O[C@@H]2O[C@@]3(C)CC[C@H]4[C@H](C)CC[C@@H]1[C@@]24OO3 | 34.9 | 14 | 82.3 | 43.48 | 12.7 | 7.78 | 56.2 | –
C[C@@H]1CC[C@H]2[C@@H](C)C(OC(=O)/C=C/c3cc4ccccc4[nH]3)O[C@@H]3O[C@@]4(C)CC[C@@H]1[C@]32OO4 (stereo not given in full) | > 50 | > 50 | > 100 | 61.05 | > 50 | 5.38 | > 100 | –
C[C@H]1[C@H](OC(=O)CCC(=O)OCCn2cc(C#N)nc2Cl)O[C@@H]2O[C@@]3(C)CC[C@H]4[C@H](C)CC[C@@H]1[C@@]24OO3 | 44.3 | 17.5 | 66.4 | 9.24 | 20.7 | 21.3 | 61.2 | –
C[C@H]1[C@H](OC(=O)CCC(=O)OCCCCn2ccnc2[N+](=O)[O-])O[C@@H]2O[C@@]3(C)CC[C@H]4[C@H](C)CC[C@@H]1[C@@]24OO3 | 21.2 | 9.78 | 85.2 | 14.71 | 16.5 | 19.8 | 45.7 | –
COc1ccc2[nH]cc(C(=O)OC3O[C@@H]4O[C@@]5(C)CC[C@H]6[C@H](C)CC[C@@H]([C@H]3C)[C@@]46OO5)c2c1 (stereo not given in full) | 27.7 | 14.5 | 70.4 | 71.89 | 13.4 | 19.8 | 36.4 | –
C[C@H]1[C@H](OC(=O)CCC(=O)OCCCn2cc(C#N)nc2Cl)O[C@@H]2O[C@@]3(C)CC[C@H]4[C@H](C)CC[C@@H]1[C@@]24OO3 | > 50 | 13.8 | > 100 | 8.51 | 19.6 | 12.8 | 72.8 | –
C[C@H]1[C@H](OC(=O)CCC(=O)OCCCn2cnc(Br)c2)O[C@@H]2O[C@@]3(C)CC[C@H]4[C@H](C)CC[C@@H]1[C@@]24OO3 | 41.6 | 12.4 | 80.9 | 5.6 | 26 | 23.2 | > 100 | –
C[C@H]1[C@H](OC(=O)CCC(=O)OCCCn2cnc([N+](=O)[O-])c2)O[C@@H]2O[C@@]3(C)CC[C@H]4[C@H](C)CC[C@@H]1[C@@]24OO3 | 33.3 | 12.7 | 80.9 | 15.72 | 20 | 22.3 | 34.3 | –
C[C@@H]1CC[C@H]2[C@@H](C)C(OC(=O)c3c[nH]c4ccc(Cl)cc34)O[C@@H]3O[C@@]4(C)CC[C@@H]1[C@]32OO4 (stereo not given in full) | 10.8 | 5.25 | > 100 | 117 | 6.17 | 32.1 | 31 | Activity (MCF7 [3]): 21.89%; Ratio IC50 (MCF7 [4]): 10; Activity (MCF7 [5]): 27.4%; Activity (MCF7 [6]): 21.41%; Activity (MCF7 [7]): 34.35%; Activity (MCF7 [8]): 24.24%; Activity (MCF7 [9]): 38.97%; Activity (MCF7 [10]): 48.36%; Activity (MCF7 [11]): 43.76%; Activity (MCF7 [12]): 39.61%
C[C@H]1[C@H](OC(=O)CCC(=O)OCCCCn2cnc(Br)c2)O[C@@H]2O[C@@]3(C)CC[C@H]4[C@H](C)CC[C@@H]1[C@@]24OO3 | 35.9 | 11.6 | > 100 | 5.56 | 18.9 | 8.95 | 41.3 | –
C[C@H]1[C@H](OC(=O)CCC(=O)OCCn2cnc(Br)c2)O[C@@H]2O[C@@]3(C)CC[C@H]4[C@H](C)CC[C@@H]1[C@@]24OO3 | 31.9 | 13.1 | > 100 | 6.37 | 24.7 | 12.4 | 66.9 | –
C[C@H]1[C@H](OC(=O)CCC(=O)OCCCn2cnc(C#N)c2C#N)O[C@@H]2O[C@@]3(C)CC[C@H]4[C@H](C)CC[C@@H]1[C@@]24OO3 | > 50 | 16.2 | 93.2 | 4.37 | 26.7 | 15 | 66.2 | –
COc1ccc(CCN(C)CCCC(C#N)(c2ccc(OC)c(OC)c2)C(C)C)cc1OC (stereo not given) | – | – | – | 39.62 | – | – | – | –
C[C@@H]1CC[C@H]2[C@@H](C)C(=O)O[C@@H]3O[C@@]4(C)CC[C@@H]1[C@]32OO4 [ARTEMISININ] | > 50 | > 50 | > 100 | – | > 50 | – | > 100 | –
C[C@H]1[C@@H](O)O[C@@H]2O[C@@]3(C)CC[C@H]4[C@H](C)CC[C@@H]1[C@@]24OO3 [ARTENIMOL] | 31.7 | 34.3 | 58.7 | – | 45.3 | – | 40.2 | IC50 (CCRF-CEM): 0.87 µM; IC50 (ADR5000 cell line): 1.84 µM
C[C@H]1[C@H](OC(=O)CCC(=O)O)O[C@@H]2O[C@@]3(C)CC[C@H]4[C@H](C)CC[C@@H]1[C@@]24OO3 [ARTESUNATE] | 39.9 | 38.7 | 75.7 | – | 50.7 | – | 72.2 | –
COc1cccc2c1C(=O)c1c(O)c3c(c(O)c1C2=O)C[C@@](O)(C(=O)CO)C[C@@H]3O[C@H]1C[C@H](N)[C@H](O)[C@H](C)O1 [DOXORUBICIN HYDROCHLORIDE] | – | – | – | – | 1.13 | – | 0.79 | –
